Two molecules from US20260256756A1, “USE OF PIPERIDINE ALKENE COMPOUND IN PREPARATION OF DRUG FOR TREATING CANCER” (JIANGSU HANSOH PHARMACEUTICAL GROUP CO., LTD., priority 2023, published 2026) can be followed below.

In experiment [1] the test system is human breast cancer cell line MX-1 xenograft tumor. The experiment is described as follows: Subcutaneous xenograft tumor model of human breast cancer cell line MX-1. It counts as in vivo, BALB/c nude mice. From the text:
• 1. Experimental objective: To evaluate the in vivo efficacy of the compound in a subcutaneous xenograft tumor model of human breast cancer cell line MX-1 in nude mice. • 2. Reagent • RPMI-1640 medium (22400-089, Gibco), fetal bovine serum (FBS) (10099-141C, Gibco) • Phosphate buffer (PBS, 10010-023, Gibco), HPMC (D180HB4005, Shanghai Colorcon Coating Technology Ltd.) • 0.25% Trypsin-EDTA (25200-056, Gibco), Pen Strep (P/S) (15140-122, Gibco) • 3. Experimental operations and data processing • 3.1 Animals: BALB/c nude mice, 8-12 weeks old, female, purchased from the Laboratory Animal Business Department of Shanghai Institute of Planned Parenthood Research. • 3.2 Cell culture and cell suspension preparation • a. A vial of MX-1 cells was taken from a cell bank, the cells were thawed with RPMI-1640 medium (RPMI-1640+10% FBS), and the thawed cells were placed in a cell culture flask (with the cell type, date, the name of the culture operator, etc., being marked on the wall of the flask), which were placed in a CO2 incubator for culturing (wherein the temperature of the incubator was 37° C., and the CO2 concentration was 5%). • b. The cells were passaged every three days, and after passage, the cells were placed in the CO2 incubator to continue the culture. This process was repeated until the cell number met the requirements for in vivo efficacy. • c. The cultured cells were collected, counted using a full-automatic cell counter, and resuspended with PBS on the basis of the counting results to prepare a cell suspension (at a density of 3×10^7/mL), which was then placed in an ice box for later use. • 3.3 Cell inoculation • a. Before inoculation, the nude mice were marked with disposable universal ear tags for mice and rats. • b. At the time of inoculation, the cell suspension was mixed uniformly, 0.1-1 mL of the cell suspension was aspirated using a 1 mL syringe with air bubbles expelled, and the syringe was then placed on an ice bag for later use. • c. The nude mouse was secured with the left hand, the right dorsal area near the right shoulder (inoculation site) of the nude mouse was disinfected with a 75% alcohol cotton ball, and inoculation was initiated after 30 seconds. • d. The experimental nude mice were inoculated sequentially (0.1 mL of cell suspension per mouse). • 3.4 Tumor measurement, grouping and administration in tumor-bearing mice • a. Tumor was measured on days 10-18 after inoculation depending on the tumor growth, and the tumor size was calculated.
tumor volume (mm^3)=length (mm)×width (mm)×width (mm)/2 Tumor volume calculation: • b. According to the body weight of tumor-bearing mice and the size of the tumor, the mice were grouped by random grouping. • c. According to the grouping results, the test drug was started to be administered (administration method: oral administration; administration volume: 10 mL/kg; administration frequency: once/day; administration cycle: 21 days; vehicle: 0.5% HPMC). • d. Tumor measurement and weighing were performed twice a week after starting administration of test drugs. • e. The animals were euthanized at the end of the experiment. • f. Data processing was performed using software such as GraphPad Prism. The tumor inhibitory efficacy of the compound was evaluated by TGI (%) and ΔT/ΔC (%). ΔT/ΔC (%)=(T−T0)/(C−C0)×100, where T and C are the tumor volumes of the treatment group and the vehicle control group at the end of the experiment, respectively, and T0 and C0 are the tumor volumes of the treatment group and the vehicle control group at the beginning of the experiment, respectively. Tumor growth inhibition (TGI) (%)=100−ΔT/ΔC (%). Tumor growth inhibition (TGI) (%)=100−(T−T0)/T0×100 when tumor regression occurs • 4. Experimental conclusion

Experiment [2] concerns BRCA2 Knockout DLD-1 cells. Nature of the experiment: In vitro proliferation inhibition (CellTiter-Glo), BRCA2 Knockout DLD-1. Type of experiment: cell-based. Particulars: Homo sapiens; DLD-1, colorectal cancer, BRCA2 deletion; 6-10 days culture. From the text:
[…]
Experimental data processing method: The luminescence signal value was used to calculate the inhibition rate. […]

Setting [3] is: MX-1, 3 mg/kg oral once/day, Day 21.
The mark [4] stands for this setting: MX-1, 100 mg/kg oral once/day, Day 21.

In the case of `CCc1cc2ncc(CN3CCN(c4ccc(C(=O)NC)nc4)CC3)cc2[nH]c1=O` [AZD5305], in experiment [1] (MX-1, 3 mg/kg oral once/day, Day 0), the “Tumor volume (Mean ± SEM)” value is 122 ± 17 mm^3. For the same molecule, in experiment [1] (setting [3]), the T/C was 34.13%, the TGI is 70.43% and the “Tumor volume (Mean ± SEM)” value worked out at 642 ± 132 mm^3. The IC50 in experiment [2] came out at 2.6 ± 0.6 nM.
As to `O=C(c1cc(Cc2n[nH]c(=O)c3ccccc23)ccc1F)N1CCN(C(=O)C2CC2)CC1` [Olaparib], the “Tumor volume (Mean ± SEM)” value in experiment [1] (MX-1, 100 mg/kg oral once/day, Day 0) worked out at 122 ± 14 mm^3. Besides, in experiment [1] (setting [4]), the T/C came to 88.08%, the TGI amounted to 12.73% and the “Tumor volume (Mean ± SEM)” value turned out to be 1656 ± 289 mm^3. The IC50 in experiment [2] is 160 ± 66 nM.
